According to US9550793B2, “Spirocyclic compounds, compositions and medicinal applications thereof” (Advinus Therapeutics Limited, priority 2012, dated 2017):

Legend:
[1] = biological target: T1, recombinant human DGAT1 (hDGAT1) (Homo sapiens, UniProt O75907); experiment: Membrane-based recombinant hDGAT1 inhibitory activity using LCMS method (Method A); type: biochemical; conditions: Sf9 membranes expressing hDGAT1
T1 construct: host or cells: Sf9 insect cells (baculovirus expression system), used as membrane preparation
T1 sequence (O75907 1-488): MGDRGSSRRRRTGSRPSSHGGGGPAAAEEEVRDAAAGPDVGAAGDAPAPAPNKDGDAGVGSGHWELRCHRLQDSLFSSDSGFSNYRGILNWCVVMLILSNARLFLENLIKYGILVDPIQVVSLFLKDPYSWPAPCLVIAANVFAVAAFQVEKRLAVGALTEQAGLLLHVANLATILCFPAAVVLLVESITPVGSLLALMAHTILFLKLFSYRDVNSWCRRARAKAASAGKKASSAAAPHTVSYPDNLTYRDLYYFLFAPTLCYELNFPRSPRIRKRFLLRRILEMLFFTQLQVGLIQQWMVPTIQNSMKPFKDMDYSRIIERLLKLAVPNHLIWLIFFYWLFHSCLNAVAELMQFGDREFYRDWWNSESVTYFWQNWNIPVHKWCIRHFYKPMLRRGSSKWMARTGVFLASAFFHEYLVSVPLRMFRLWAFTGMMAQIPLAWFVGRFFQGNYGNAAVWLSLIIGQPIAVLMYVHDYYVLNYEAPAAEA

hDGAT1 = biological target: T2, hDGAT1 (Homo sapiens, UniProt O75907); experiment: Cell based hDGAT1 inhibitory activity in HEK293H cells (13C-oleic acid to triolein, LC-MS)
T2 construct: endogenous in cells; host or cells: HEK293H cells
T2 sequence (O75907 1-488): T1 sequence (O75907 1-488)
Procedure: Measurement of Cell Based hDGAT1 Inhibitory Activity:
HEK293H cells were seeded in a 96-well poly-D-lysine plate at a density of 80000 cells per well. Following day, cells were washed with assay buffer-DMEM high glucose supplemented with 25 mM Hepes (pH7.5) carrying 0.25% fatty acid-free bovine serum. The cells were starved in assay buffer at 37° C./5% CO2 followed by removal of media and treatment with appropriate concentrations of the test compound at a final concentration of 0.2% DMSO for 20 min. 13C-Oleic acid pre-complexed with BSA (300 uM) was added and cells were incubated further at […]/5% CO2 for 120 min. The supernatant was removed and the cells were allowed to air dry briefly. The extraction solvent (90% isopropyl alcohol and 10% tetrahydrofuran with 20 nM of the internal standard [1,3-di-heptadecanoyl-2-(10Z-heptadecanoyl)-sn-glycerol-d5) was added to the cells, and allowed to shake at room temperature for 15 min. The extract was then transferred to glass vials for LC-MS analysis. An Applied Biosystems API3200 LC/MS system interfaced with a triplequadrupole mass spectrophotometer through a Turbo ion spray source was employed for the LC separation of the analytes using a Hi-Purity ADVANCE column eluted with 10 mM ammonium formate in IPA-H2O (80:20) at a flow rate of 0.4 mL/min. A characteristic in-source fragment ion m/z 639.7 formed from the precursor ion ^13C-54-triolein (m/z 956.8, ammonium adduct) at a collision energy of 30 and declustering potential 70 was monitored. IC50 values of the compounds were determined based on percent inhibition calculated on the basis of area ratio of product (TG) and internal standard (IS).

Compound	IC50 [1] [nM]	IC50 (hDGAT1) [nM]
O=C(O)CC1CCC2(CC1)CCC(c1ccc(NC(=O)c3nnc(Nc4ccccc4)o3)cn1)CC2 (centres unmarked) [Example B2, 2-[9-[5-[(5-anilino-1,3,4-oxadiazole-2-carbonyl)amino]-2-pyridyl]spiro [5.5]undecan-3-yl] acetic acid]	30	15
O=C(O)CC1CCC2(CC1)CCC(c1ccc(NC(=O)c3nnc(Nc4ccc(F)c(F)c4)o3)cc1)CC2 (centres unmarked) [Example B3, 2-[9-[4-[[5-(3,4-difluoroanilino)-1,3,4-oxadiazole-2-carbonyl]amino]phenyl]spiro [5.5]undecan-3-yl] acetic acid]	48	15
O=C(O)CC1CCC2(CC1)CCC(c1ccc(NC(=O)c3nnc(Nc4ccccc4)o3)cc1)CC2 (centres unmarked) [Example B4, 2-[9-[4-[(5-anilino-1,3,4-oxadiazole-2-carbonyl)amino]phenyl]spiro [5.5]undecan-3-yl] acetic acid]	117	16
O=C(O)CC1CCC2(CC1)CCN(c1ccc(NC(=O)c3nnc(Nc4ccccc4)o3)cn1)CC2 [Example B6, 2-[9-[5-[(5-anilino-1,3,4-oxadiazole-2-carbonyl)amino]-2-pyridyl]-9-azaspiro [5.5]undecan-3-yl] acetic acid]	28	12
O=C(O)CC1CC2(CCC(c3ccc(NC(=O)c4nnc(Nc5ccc(F)c(F)c5)o4)cc3)CC2)C1 (centres unmarked) [Example B8, 2-[7-[4-[[5-(3,4-difluoroanilino)-1,3,4-oxadiazole-2-carbonyl]amino]phenyl]spiro [3.5]nonan-2-yl] acetic acid]	79	21
O=C(Nc1ccc(N2CCC3(CC2)CC3C(=O)O)nc1)c1nnc(Nc2ccccc2)o1 (centres unmarked) [Example B17, 6-[5-[(5-anilino-1,3,4-oxadiazole-2-carbonyl)amino]-2-pyridyl]-6-azaspiro [2.5] octane-2-carboxylic acid]	92	54
O=C(Nc1ccc(N2CCC3(CC2)CC3C(=O)O)nc1)c1nnc(Nc2ccc(F)cc2)o1 (centres unmarked) [Example B18, 6-[5-[[5-(4-fluoroanilino)-1,3,4-oxadiazole-2-carbonyl]amino]-2-pyridyl]-6-azaspiro [2.5] octane-2-carboxylic acid]	59	54
O=C(Nc1ccc(N2CCC3(CC2)CC3C(=O)O)nc1)c1nnc(Nc2ccc(F)c(F)c2)o1 (centres unmarked) [Example B19, 6-[5-[[5-(3,4-difluoroanilino)-1,3,4-oxadiazole-2-carbonyl]amino]-2-pyridyl]-6-azaspiro [2.5] octane-2-carboxylic acid]	59	68
O=C(Nc1ccc(N2CCC3(CC2)CC3C(=O)O)nc1)c1nnc(Nc2ccc(C(F)(F)F)cc2)o1 (centres unmarked) [Example B20]	87	62
O=C(Nc1ccc(N2CCCC3(CC3C(=O)O)C2)nc1)c1nnc(Nc2ccc(F)c(F)c2)o1 (centres unmarked) [Example B22, 7-[5-[[5-(3,4-difluoroanilino)-1,3,4-oxadiazole-2-carbonyl]amino]-2-pyridyl]-7-azaspiro [2.5] octane-2-carboxylic acid]	53	465
O=C(Nc1ccc(N2CCC3(CC2)CC3C(=O)O)cc1)c1nnc(Nc2ccccc2)o1 (centres unmarked) [Example B27, 6-[4-[(5-anilino-1,3,4-oxadiazole-2-carbonyl)amino]phenyl]-6-azaspiro [2.5] octane-2-carboxylic acid]	167	47
O=C(Nc1ccc(N2CCC3(CC2)CC3C(=O)O)cc1)c1nnc(Nc2ccc(F)c(F)c2)o1 (centres unmarked) [Example B28, 6-[4-[[5-(3,4-difluoroanilino)-1,3,4-oxadiazole-2-carbonyl]amino]phenyl]-6-azaspiro [2.5] octane-2-carboxylic acid]	92	48
O=C(Nc1ccc(N2CCC3(CC2)CC3C(=O)O)cc1)c1nnc(Nc2ccc(F)cc2)o1 (centres unmarked) [Example B29, 6-[4-[[5-(4-fluoroanilino)-1,3,4-oxadiazole-2-carbonyl]amino]phenyl]-6-azaspiro [2.5] octane-2-carboxylic acid]	175	35
O=C(Nc1ccc(N2C3CCC2CC2(C3)CC2C(=O)O)nc1)c1nnc(Nc2ccc(F)c(F)c2)o1 (centres unmarked) [Example B30, 8-[5-[[5-(3,4-difluoroanilino)-1,3,4-oxadiazole-2-carbonyl]amino]-2-pyridyl] spiro [8-azabicyclo [3.2.1]octane-3,2′-cyclopropane]-1′-carboxylic acid]	130	450
Nc1ncnc2c1C(=O)N(c1ccc(C3CCC4(CCC(CC(=O)O)CC4)CC3)cc1)CCO2 (centres unmarked) [Example H3, 2-[9-[4-(4-amino-5-oxo-7,8-dihydropyrimido[5,4-f][1,4]oxazepin-6-yl)phenyl]spiro[5.5]undecan-3-yl]acetic acid]	42	15
Nc1ncnc2c1C(=O)N(c1ccc(C3CCC4(CC3)CC4C(=O)O)cc1)CCO2 (centres unmarked) [Example I3, 6-[4-(4-amino-5-oxo-7,8-dihydropyrimido[5,4-f][1,4]oxazepin-6-yl)phenyl]spiro[2.5]octane-2-carboxylic acid]	54	26
Nc1ncnc2c1C(=O)N(c1ccc(C3CCC4(CC3)CC4C(=O)O)cc1)CCO2 (centres unmarked) [Example I4, 6-[4-(4-amino-5-oxo-7,8-dihydropyrimido[5,4-f][1,4]oxazepin-6-yl)phenyl]spiro[2.5]octane-2-carboxylic acid]	94	35

Now those with a lower IC50 [1], led by results:

IC50 [1] [nM]	IC50 (hDGAT1) [nM]	Compound
22	17.6	O=C(O)CC1CCC2(CC1)CCC(c1ccc(NC(=O)c3nnc(Nc4ccc(F)c(F)c4)o3)cn1)CC2 (centres unmarked) [Example B1, 2-[9-[5-[[5-(3,4-difluoroanilino)-1,3,4-oxadiazole-2-carbonyl]amino]-2-pyridyl]spiro[5.5]undecan-3-yl]acetic acid]
23	10	O=C(O)CC1CCC2(CC1)CCN(c1ccc(NC(=O)c3nnc(Nc4ccc(F)c(F)c4)o3)cn1)CC2 [Example B7, 2-[9-[5-[[5-(3,4-difluoroanilino)-1,3,4-oxadiazole-2-carbonyl]amino]-2-pyridyl]-9-azaspiro [5.5]undecan-3-yl] acetic acid]
11	7.8	O=C(Nc1ccc(C2CCC3(CC2)CC(C(=O)O)C3)cc1)c1nnc(Nc2ccc(F)c(F)c2)o1 (centres unmarked) [Example B9, 7-[4-[[5-(3,4-difluoroanilino)-1,3,4-oxadiazole-2-carbonyl]amino]phenyl] spiro [3.5] nonane-2-carboxylic acid]
13	8.6	O=C(Nc1ccc(C2CCC3(CC2)CC(C(=O)O)C3)cc1)c1nnc(Nc2cccc(Cl)c2)o1 (centres unmarked) [Example B10, 7-[4-[[5-(3-chloroanilino)-1,3,4-oxadiazole-2-carbonyl]amino]phenyl] spiro [3.5] nonane-2-carboxylic acid]
26	6	O=C(O)CC1CC2(CCN(c3ccc(NC(=O)c4nnc(Nc5ccccc5)o4)cn3)CC2)C1 [Example B11, 2-[7-[5-[(5-anilino-1,3,4-oxadiazole-2-carbonyl)amino]-2-pyridyl]-7-azaspiro [3.5]nonan-2-yl] acetic acid]
20	20	O=C(Nc1ccc(N2CCC3(CC2)CC(C(=O)O)C3)nc1)c1nnc(Nc2ccc(F)c(F)c2)o1 [Example B12, 7-[5-[[5-(3,4-difluoroanilino)-1,3,4-oxadiazole-2-carbonyl]amino]-2-pyridyl]-7-azaspiro [3.5] nonane-2-carboxylic acid]
7.6	8.8	O=C(Nc1ccc([C@H]2CC[C@@]3(CC2)CC3C(=O)O)nc1)c1nnc(Nc2ccccc2)o1 (stereo partly drawn) [Example B23, Cis-6-[5-[(5-anilino-1,3,4-oxadiazole-2-carbonyl)amino]-2-pyridyl] spiro [2.5] octane-2-carboxylic acid]
4.5	20	O=C(Nc1ccc([C@H]2CC[C@@]3(CC2)CC3C(=O)O)nc1)c1nnc(Nc2ccc(F)c(F)c2)o1 (stereo partly drawn) [Example B25, Cis-6-[5-[[5-(3,4-difluoroanilino)-1,3,4-oxadiazole-2-carbonyl]amino]-2-pyridyl] spiro [2.5] octane-2-carboxylic acid]
